Results taken from patent US9821072B2, “Activated neurotensin molecules and the uses thereof” (priority 2014, dated 2017).

Experiments:
[1] = tested on: mice; test: Tolerance / toxicity after i.v. bolus in mice (MTD, LD50); type: in vivo, mouse
Procedure: NT, which is similar to that measured for compound I and compound II. […] When injected at 20 mg/kg eq. NT in mice, compound XIV was still well-tolerated with no additional safety concerns. […] NT. The Maximal Tolerated Dose (MTD) was 40 mg/kg eq. […] Given that the MED was about 0.1 mg/kg eq. NT, this pharmacodynamic/toxicity profile constitutes an excellent safety prerequisite since i) it prevents potentially lethal overdose due to exacerbated pharmacological hypothermia, and ii) using the intravenous (bolus) mode of administration, the therapeutic window, which is expressed as the fold increase between the MED and MTD, is about 400, with 4-fold security between the dose level eliciting a maximal hypothermic response and that inducing mild/non-lethal toxicity.

[2] = tested on: Swiss (CD-1) mice; test: Hypothermic response (rectal body temperature) after i.v. bolus in Swiss (CD-1) mice; type: in vivo, mouse
[3] = target: T1, human neurotensin receptor type 1 (hNTR-1) (Homo sapiens, UniProt P30989); test: Competition binding assay with [3H]-neurotensin on human NTR-1 membranes (CHO cells); conditions: read-out: NTR-1 binding affinity Ki, Human NTR-1
T1 construct: purchased PerkinElmer; host or cells: CHO cells stably expressing human NTR-1 (membrane homogenates)
T1 sequence (P30989 whole entry): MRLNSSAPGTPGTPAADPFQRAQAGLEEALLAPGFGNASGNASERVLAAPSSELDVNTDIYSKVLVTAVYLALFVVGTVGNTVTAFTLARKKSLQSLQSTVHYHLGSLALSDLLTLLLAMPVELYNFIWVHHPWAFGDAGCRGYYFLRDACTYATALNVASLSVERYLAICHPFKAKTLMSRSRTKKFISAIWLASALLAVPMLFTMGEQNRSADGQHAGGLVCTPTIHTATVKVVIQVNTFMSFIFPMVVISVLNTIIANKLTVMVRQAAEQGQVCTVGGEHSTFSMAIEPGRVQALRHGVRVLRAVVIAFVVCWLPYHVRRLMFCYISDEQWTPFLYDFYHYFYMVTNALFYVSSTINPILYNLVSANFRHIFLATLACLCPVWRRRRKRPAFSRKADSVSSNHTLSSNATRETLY

[4] = tested on: FVB/N mice with KA-induced status epilepticus; test: Kainic acid-induced status epilepticus model (body temperature, seizures, neurodegeneration, neuroinflammation, mossy fiber sprouting); type: in vivo, mouse; conditions: 30 min after SE onset; first of two values, presumably 2 mg/kg eq. NT
[5] = tested on: Swiss (CD-1) mice; test: Hypothermic response upon four daily i.v. administrations in Swiss (CD-1) mice; type: in vivo, mouse; conditions: 4 mg/kg eq. NT daily i.v.
Procedure: In order to determine the hypothermic responsiveness of mice upon repeated administrations of activated NT of the invention, Swiss (CD-1) mice were challenged to four daily intravenous (bolus) administrations of compound XIV at 4 mg/kg eq. NT. Rectal body temperature was monitored each day during 3 hours post-injection.

[6] = tested on: FVB/N mice with KA-induced status epilepticus; test: Kainic acid-induced status epilepticus model (body temperature, seizures, neurodegeneration, neuroinflammation, mossy fiber sprouting); type: in vivo, mouse
Description: In the present case, excitotoxicity was induced by subcutaneous (s.c.) injection of kainic acid (KA), a pro-convulsant agent known to induce a status epilepticus (SE) with excitotoxicity, neuroinflammation, and severe neuronal damage in the hippocampus that can be observed 3 to 7 days after KA administration, and with aberrant axonal sprouting of the dentate gyrus mossy fibers that can be observed at 7-8 weeks after KA administration. We tested the effect of compound XIV on i) epileptic activity (persistence of recurrent seizures), ii) neurodegeneration, neuroinflammation and the resulting brain tissue damage and iii) aberrant axonal sprouting of the dentate gyrus mossy fibers.
FVB/N adult male mice were injected with a single dose of KA (40-45 mg/kg s.c.) to generate mice with spontaneous recurrent seizures as a hallmark of SE. A negative control group of mice were administered saline 0.9% instead of KA and no further treatment (“SHAM”, n=5). Thirty minutes after the onset of SE, mice received either an intravenous (tail vein) bolus injection of compound XIV at the dose of 4 mg/kg eq. NT (treatment group “SE+HT”, n=5) or saline 0.9% (group “SE”, n=5), or a high dose of diazepam (DZP) at 15 mg/kg), a potent anti-convulsive and anti-epileptic drug (positive control group “SE+DZP”). Body temperature was monitored before KA injection and then every 15 min during 6 hours thereafter, using a rectal probe. During this period, mice were assessed for the occurrence and severity of motor seizures. One week later, animals were sacrificed for histological assessment of neuronal cell death on coronal sections, the hippocampal formation being the main structure in the brain showing tissue damage in this model of excitotoxicity. Another group of animals with the same treatments was sacrificed 8 weeks for histological assessment of aberrant axonal sprouting of the dentate gyrus mossy fibers.
Administration of KA (40-45 mg/kg; s.c.) caused characteristic sequential behavioral changes. Immediately after being injected, all animals developed immobility (stage 1). Within 30 minutes after KA injection, automatisms with head nodding, forelimb clonus and circling behavior (stages 2-3) were observed. Then most animals progressed to intermittent (stage 4) followed by continuous (stage 5) rearing with forelimb clonus and falling behavior. […] Only animals attaining at least Racine stage 5 seizures were included in the study. The SE occurred around 2 hours after KA injection, was characterized by stage 5-6 seizures and often associated with hyperthermia (FIG. 13A). Compound XIV administered 30 min after SE onset (SE30) invariably led to transient hypothermia (FIG. 13A), which persisted at least 2 hrs. Mean decreases in body temperature (BT) of −2.5° C. and −3.6° C. were respectively recorded for SE30+ compound XIV animals as compared to SE animals (F=52.34; ***P<0.001). […] SE30+ compound XIV animals presented an average of stage 2 seizures or fewer during the rest of experiment. A subset of animals was administered i.p. a high dose of diazepam (DZP). […] Thus, administration of compound XIV at the dose of 4 mg/kg eq. […] This effect correlated with a −3 to −6° C. decrease in body temperature during ˜2.5 hours.
Using the anti-NeuN antibody and Fluoro-jade C that respectively label a neuronspecific nuclear protein and neuronal death, we observed a broad loss of CA1 and CA3 pyramidal cells as well as some dentate hilar neurons in the hippocampus of control SE animals (FIG. 14A, panel B), as compared to SHAM animals (FIG. 14A, panel A).
SE-induced gliosis involved microglia and astroglial cell types. We used GFAP and Iba1 immunolabeling to estimate the effect of compound XIV on neuroinflammation. In SHAM animals, a basal labeling for GFAP and Iba1 was detected in the HF (FIG. 14A, panel D). In SE animals, a very strong activation of glial cells occurred in all hippocampal layers (FIG. 14, panels E, H). […]

[7] = target: T2, rat neurotensin receptor type 1 (rNTR-1) (Rattus norvegicus, UniProt P20789); test: Competition binding assay with [3H]-neurotensin on rat NTR-1 membranes (HEK293 cells); conditions: read-out: NTR-1 binding affinity Ki, Rat NTR-1
T2 construct: host or cells: HEK293 cells (membrane homogenates)
T2 sequence (P20789 whole entry): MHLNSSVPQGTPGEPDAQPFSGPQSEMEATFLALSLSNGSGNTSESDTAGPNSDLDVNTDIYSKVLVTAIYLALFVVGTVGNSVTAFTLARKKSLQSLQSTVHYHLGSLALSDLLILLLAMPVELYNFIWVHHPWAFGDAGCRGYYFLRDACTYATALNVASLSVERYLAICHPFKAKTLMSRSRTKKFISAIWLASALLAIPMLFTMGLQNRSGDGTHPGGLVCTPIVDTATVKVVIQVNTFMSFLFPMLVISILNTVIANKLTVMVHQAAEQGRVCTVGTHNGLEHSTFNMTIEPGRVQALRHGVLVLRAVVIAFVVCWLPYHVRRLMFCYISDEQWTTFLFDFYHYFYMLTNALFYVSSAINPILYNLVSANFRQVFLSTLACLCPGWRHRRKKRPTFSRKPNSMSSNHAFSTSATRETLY

[8] = administered 30 min after SE onset

Structure (SMILES): CCC(=O)N[C@@H]1CSSC[C@@H](C(=O)NCCOCCOCCOCCOCCOCCOCCC(=O)N[C@@H](CCCNC(=N)N)C(=O)N[C@@H](CCCNC(=N)N)C(=O)N2CCC[C@H]2C(=O)N[C@@H](Cc2ccc(O)cc2)C(=O)N[C@H](C(=O)N[C@@H](CC(C)C)C(=O)O)[C@@H](C)CC)NC(=O)CN(C)C(=O)[C@H](CCCNC(=N)N)NC(=O)[C@H](CC(C)C)NC(=O)[C@H](CCCNC(=N)N)NC(=O)[C@@H]2CCCCN2C(=O)[C@H](CCSC)NC1=O [Compound XIV, Pr-cMPipRLRSarC-PEG6-RRPYIL-OH]
- tolerance ([1]; 20 mg/kg eq. NT, mice): well-tolerated
- security between dose eliciting maximal hypothermic response and dose inducing mild/non-lethal toxicity ([1]; i.v. bolus): 4 fold
- therapeutic window (fold increase between the MED and MTD) ([1]; i.v. bolus): about 400 fold
- Maximal Tolerated Dose (MTD) ([1]; i.v. bolus, mice): 40 mg/kg eq. NT
- LD50 (Lethal Dose, 50%) ([1]; i.v. bolus, mice, not reached): > 40 mg/kg eq. NT
- Maximal decrease in body temperature ([2]; 10 mg/kg eq. NT i.v. bolus, 60 min post-injection): −6.7 °C
- hypothermic response at 20 mg/kg eq. NT versus 10 mg/kg eq. NT ([2]; 20 mg/kg eq. NT, mice): No further decrease in body temperature
- Minimal Effective Dose (MED), hypothermic effect ([2]; i.v. bolus): about 0.1 mg/kg eq. NT
- ED50, hypothermic effect ([2]; i.v. bolus, dose-response): 1.53 mg/kg eq. NT
- Ki [3]: 0.22 ± 0.06 nM
- mean decrease in body temperature compared to SE animals (first value) [4]: −2.5 °C
- maximal decrease in body temperature, day 1 ([5]; day 1, 45 min post-injection): −5.5 °C
- mean decrease in body temperature, day 2 to day 4 ([5]; day 2 to day 4, 30 min post-injection): −3 °C
- decrease in body temperature ([6]; 4 mg/kg eq. NT i.v., during ~2.5 hours): −3 to −6 °C
- mean decrease in body temperature compared to SE animals (second value) ([6]; 30 min after SE onset, second of two values, presumably 4 mg/kg eq. NT): −3.6 °C
- glial inflammatory response in the hippocampus (GFAP, Iba1) compared with SE animals [6, 8]: significantly decreased
- persistence of transient hypothermia [6, 8]: at least 2 hrs
- seizure intensity compared with SE group [6, 8]: significant decrease of seizures
- seizure stage (Racine) during the rest of the experiment [6, 8]: ≤ 2 stage
- number of mossy fiber terminals innervating the IML (ZnT3) compared with SE animals ([6]; administered 30 min after SE onset, 8 weeks after SE): considerably reduced
- neurodegeneration in the hippocampus (NeuN, Fluoro-jade C) compared with SE animals ([6]; administered 30 min after SE onset, one week later): significantly decreased
- Ki [7]: 1.06 ± 0.47 nM
